Test results taken from US11931463B2, “All-in-one fixed-dose combination for treating Helicobacter pylori infection” (RedHill Biopharma Ltd., priority 2013, dated 2024).
Read-outs that look alike come from different tables or passages of the source.

Experiments:
[1] = cited from earlier work
H. pylori = conditions: cited from earlier work
[2] = In vitro dissolution assay, 900 ml 0.01 N HCl, 100 rpm, baskets apparatus; type: physicochemical
Experimental: (§1) In some embodiments, an average of no less than 80% of amoxicillin is released in 60 min at 100 rpm in a baskets apparatus (900 ml 0.01 N HCl, at 100 rpm in a baskets apparatus). In some embodiments, an average of 90%, 96%, and 97% of the amoxicillin is released in an in vitro dissolution assay at 20, 30, and 45 minutes, respectively.
as §1, with “75%” for “80%”, “rifabutin” for “amoxicillin”, “45” for “60”, “95, 97,” for “90%, 96%,”, “98%” for “97%”

clinical = conditions: human, in vivo, 50 mg
plasma proteins = conditions: cited from earlier work
[3] = Assay and related substances under accelerated conditions 40° C./75% RH; type: physicochemical
[4] = Phase I open-label 2-arm crossover relative bioavailability study, plasma pharmacokinetics; conditions: for concentration at 0.5 h / concentration at 1 h / concentration at 2 h / concentration at 3 h: both, human, in vivo
Experimental: A single center, randomized, single and multiple doses, open-label, 2-period, 2-sequence, crossover study was carried out on male and female volunteers.
A Phase I Open-Label, 2-Arm Crossover Study to Evaluate the Relative Bioavailability of the pharmaceutical composition, also herein as test formulation (Rifabutin/Amoxicillin/Omeprazole 12.5 mg/250 mg/10 mg) capsules given 3 times a day, every 8 hours, compared to the concomitant administration of the three drug substance components in fasted healthy volunteers (Table 13). Test formulation (Treatment-1) was analyzed in comparison to the pharmacokinetics of the reference drugs rifabutin, amoxicillin and omeprazole given concomitantly (Treatment-2) under fasting conditions.
Treatment-1: 4× Test formulation Amoxicillin, Rifabutin, Omeprazole 250 mg/12.5 mg/10 mg capsules (Test) given three times daily, in the morning, afternoon and evening, 8 hours apart, for a total daily oral dose of 3000 mg/150 mg/120 mg.
Treatment-2: 1× Mycobutin® 150 mg capsule (Reference-1)+2× Amoxicillin 500 mg capsule (Reference-2)+1× Prilosec® 40 mg delayed-release capsule (Reference-3) taken concomitantly each given three times daily, in the morning, afternoon and evening, 8 hours apart, for a total daily oral dose of 150 mg rifabutin/3000 mg amoxicillin/120 mg omeprazole.
Reference-1 Product, Dose and Mode of Administration: • Name: Mycobutin® • Dosage form/Route of administration: Capsule/Oral • Regimen: Single 150 mg dose (1×150 mg) given once in the morning, for a total daily oral dose of 150 mg.
Reference-2 Product, Dose and Mode of Administration: • Name: Amoxicillin • Dosage form/Route of administration: Capsule/Oral • Regimen: Single 1000 mg dose (2×500 mg) given three times daily, in the morning, afternoon and evening, 8 hours apart, for a total of a total daily oral dose of 3000 mg.
Reference-3 Product, Dose and Mode of Administration: • Name: Prilosec® • Dosage form/Route of administration: Delayed Release Capsule/Oral • Regimen: Single 40 mg dose (1×40 mg), given three times daily, in the morning, afternoon and evening, 8 hours apart, for a total of a total daily oral dose of 120 mg
Treatments: • Treatment-1: 4 capsules of the Test formulation was given three times daily, in the morning, afternoon and evening, 8 hours apart, for a total daily oral dose of 150 mg rifabutin/3000 mg amoxicillin/120 mg omeprazole) • Treatment-2: Reference-1 drug (Rifabutin) was given once in the morning together with 2 capsules of Reference-2 drug (amoxicillin) and 1 capsule of Reference-3 drug (Omeprazole). Each reference drug was given three times daily, in the morning, afternoon and evening, 8 hours apart, for a total daily oral dose of 150 mg rifabutin/3000 mg amoxicillin/120 mg omeprazole).
Single and multiple oral doses were administered under fasting conditions in each study period. The drug administrations were separated by a wash-out of 14 calendar days.
For each Treatment in each study period, 78 blood samples were collected on 26 occasions.
Main absorption and disposition parameters using a non-compartmental approach with a log-linear terminal phase assumption. Trapezoidal rule to estimate the area under the curve. The pharmacokinetic parameters for this study were to be Cmax, Tmax, Cmin, C24, Clast, Tlast, AUC0-24, AUC∞, Kel and T1/2el.
Statistical analysis of Tmax based on a non-parametric approach. Statistical analysis of all other pharmacokinetic parameters based on a parametric ANOVA model. […] ANOVA Model: • fixed factors: sequence, period, treatment • random factor: subject (nested within sequence) Safety: • Descriptive statistics.

[5] = cited from earlier work; remark: listed apart in the source
[6] = cited from earlier work; remark: listed apart in the source
[7] = single oral 150 mg dose of rifabutin capsules, fasting
[8] = single oral 1000 mg dose of amoxicillin capsules, fasting

Compound: 31-hydroxyrifabutin
- plasma metabolite: parent area under the curve ratio ([1]; in vivo): 0.07

Compound: 25-O-desacetylrifabutin
- plasma metabolite: parent area under the curve ratio ([1]; in vivo): 0.10

Compound: CO[C@H]1/C=C/O[C@@]2(C)Oc3c(C)c(O)c4c(c3C2=O)C2=NC3(CCN(CC(C)C)CC3)NC2=C(NC(=O)/C(C)=C\C=C\[C@H](C)[C@H](O)[C@@H](C)[C@@H](O)[C@@H](C)[C@H](OC(C)=O)[C@@H]1C)C4=O [Rifabutin]
- mean rate of H. pylori resistance (H. pylori; in general): 1.3%
- mean rate of H. pylori resistance (H. pylori; patients naïve to H. pylori eradication treatment): 0.6%
- average released in in vitro dissolution assay ([2]; 20 minutes): 95%
- average released in in vitro dissolution assay ([2]; 30 minutes): 97%
- average released in in vitro dissolution assay ([2]; 45 minutes): 98%
- Cmax (clinical): ~63 ng/mL
- bound to plasma proteins (plasma proteins; concentration range of 50 to 1000 ng/ml): About 85%
- mean systemic clearance ([1]; healthy adult volunteers, single oral dose): 0.69 (±0.32) L/hour/kg
- Cmax ([1]; in vivo, po, 150 mg): 188 ng/mL
- dose absorbed ([1]; in vivo, po): at least 53%
- time to peak plasma concentrations ([1]; in vivo, po): 2 to 4 h
- contribution of renal and of biliary excretion of unchanged drug to systemic clearance ([1]; in vivo): approximately 5%
- decrease of AUC following multiple dosing ([1]; in vivo): 38%
- steady-state trough levels (Cp, Cminss, 24-hour post dose) ([1]; in vivo): 50 to 65 ng/mL
- initial half-life ([1]; plasma elimination, biphasic): approximately 4 hours
- T1/2el [1, 7]: 40 h
- Tmax [1, 7]: 3 h
- Related Substances, Total ([3]; T = 0): 1.13 % area
- Related Substances, Total ([3]; T = 1 month, 40° C./75% RH): 2.11 % area
- extent of absorption of rifabutin, single 150 mg capsule relative to test formulation tid ([4]; 150 mg rifabutin over 24 hours in both treatments): 1.5 times
- concentration at 0.5 h [4]: 5.52 ng/mL
- concentration at 1 h [4]: 28.1 ng/mL
- concentration at 2 h [4]: 66.1 ng/mL
- concentration at 3 h [4]: 72.5 ng/mL

Compound: CC1(C)S[C@@H]2[C@H](NC(=O)[C@H](N)c3ccc(O)cc3)C(=O)N2[C@H]1C(=O)O [Amoxicillin]
- average released in in vitro dissolution assay ([2]; 20 minutes): 90%
- average released in in vitro dissolution assay ([2]; 30 minutes): 96%
- average released in in vitro dissolution assay ([2]; 45 minutes): 97%
- T1/2el ([5]; in vivo, po, 1000 mg): 1.15 h
- time to peak serum concentrations ([5]; in vivo, po): 1 to 2 h
- peak serum concentrations relative to equivalent dose of oral ampicillin ([5]; in vivo): 2-2.5 times
- stability in gastric acid ([5]; in vivo): stable in the presence of gastric acid
- Cmax [5, 8]: 14000 ng/mL
- Tmax [5, 8]: 1.65 h
- Related Substances, Total ([3]; T = 0): 2.21 % area
- Related Substances, Total ([3]; T = 1 month, 40° C./75% RH): 3.01 % area
- concentration at 0.5 h [4]: 2380 ng/mL
- concentration at 1 h [4]: 8920 ng/mL
- concentration at 2 h [4]: 14700 ng/mL
- concentration at 3 h [4]: 11300 ng/mL

Compound: COc1ccc2[nH]c([S+]([O-])Cc3ncc(C)c(OC)c3C)nc2c1 (centres unmarked) [Omeprazole]
- T1/2el ([6]; in vivo, po, 40 mg): 1 h
- drug absorbed from the gastrointestinal tract ([6]; in vivo, po): approximately 35%
- dose excreted in the feces ([6]; in vivo): 20%
- dose recovered as urinary metabolites ([6]; in vivo): 80%
- time to completion of absorption ([6]; in vivo): ≤ 4 h
- average half-life of the terminal phase ([6]; plasma concentration-time curve): approximately 40 minutes
- Tmax ([6]; single oral 40 mg dose of omeprazole delayed-release capsules, fasting): 1.75 h
- plasma protein binding (plasma proteins): about 95%
- concentration at 0.5 h [4]: 85.8 ng/mL
- concentration at 1 h [4]: 613 ng/mL
- concentration at 2 h [4]: 828 ng/mL
- concentration at 3 h [4]: 466 ng/mL
